Results published in publication PMC11073449 (Science (New York, N.Y.), 2023).
Where a chain is given by its changes, count along the chain named.

Legend:
[1] = biological target: T1, Aster-A (Mus musculus, UniProt Q8VEF1, L400A); test: CD thermal stabilization; format: binding
T1 sequence (Q8VEF1 334-562 L400A): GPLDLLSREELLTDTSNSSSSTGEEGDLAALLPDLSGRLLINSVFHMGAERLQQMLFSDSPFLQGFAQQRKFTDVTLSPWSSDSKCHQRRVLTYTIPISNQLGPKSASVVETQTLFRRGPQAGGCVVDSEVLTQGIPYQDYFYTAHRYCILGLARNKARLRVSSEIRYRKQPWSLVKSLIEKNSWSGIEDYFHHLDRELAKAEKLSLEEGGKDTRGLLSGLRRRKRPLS

[2] = biological target: T2, Aster-A (Mus musculus, UniProt Q8VEF1, L400A/F405I); test: CD thermal stabilization; format: binding
T2 sequence (Q8VEF1 334-562 L400A/F405I): T1 sequence (Q8VEF1 334-562 L400A) with F72I

CD thermal stabilization [1]: but the stability was increased by EZ
SMILES: O=C1[C@H](CC[C@H](O)c2ccc(F)cc2)[C@@H](c2ccc(O)cc2)N1c1ccc(F)cc1 [EZ, ezetimibe]
CD thermal stabilization [2]: The Aster-A mutant L400A_F405I, as well as the single mutant L400A, reduced Aster-A thermal stability
